Assay [1] relates to UVA light-induced wrinkles. To be noted: topical; 10 mM; UVA 13.0 J/cm^2; 15-week study; cited from earlier work.
In the next assay the test system is human fibroblasts. The assay can be described thus: Production of β-endorphin in a culture of human fibroblasts (ELISA). The assay is classed as cell-based. To be noted: 0.038-0.600 μg/mL, 48 hr incubation, FIG. 2. (In general: An ELISA detects its analyte on a solid surface through an enzyme-linked reagent.)
In a further assay the test system is bovine fosfodiesterase. To be noted: in vitro bovine fosfodiesterase; theobromine versus caffeine; cited from earlier work.
Another assay has as its system adipocytes. To be noted: ex vivo adipocytes; caffeine versus theobromine; lypolisis rate by intracelullar glycerol; cited from earlier work.
A further assay has as its system human keratinocytes. The assay can be described thus: Production of β-endorphin in a culture of human keratinocytes (ELISA). The assay is classed as cell-based. To be noted: 0.038-0.600 μg/mL, 48 hr incubation, FIG. 3.

The values below come from patent US9198848B2, “Process for obtaining extracts containing methylxanthine derivatives from cakes of plants of the genus Theobroma, as well as composition and use of said extract” (Natura Cosmeticos S.A., priority 2008, dated 2015).

Procedure for human fibroblasts: To carry out the experiments a cell line (pure/isolated culture) of human fibroblasts, adult age (mature), 6a passage was used.
The cells were cultured on appropriate culture plates (24 well) in specific medium culture, containing supplements required for cell maintenance and proliferation. For that purpose, 1×10^5 cells/well were seeded, confluence being reached after a 48 hour incubation, in a wet stove, 5% CO2, 37° C.
Subsequent to confluence (approximately 80% of the total area), the samples to be assessed were added, at the appropriate concentrations and previously established, according to table 1, always keeping a group as CONTROL (with no treatment), for comparative purposes in assessing effectiveness. The samples were previously diluted in proper culture medium.
(§1) After 48 hour incubation (wet stove, 5% CO2, 37° C.) with the samples, the supernatant of cell cultures were collected for assessing the beta-endorphin release. The possible citotoxicity of the compound was also assessed and taken into account. Assessment was qualitative only, by analysis of morphology and cell characteristics.
Quantification of the production of beta-endorphin by the cells in culture was carried out by the immunoenzymatic method ELISA (Enzyme-Linked Immunosorbent Assay), using a kit appropriate for determining beta-endorphin in biological samples. The samples were assessed in quadruplicate.
Procedure for human keratinocytes: To carry out the experiments a cell line (pure/isolated culture) of human keranoticytes, adult age (mature), 7th passage was used.
The cells were cultured on appropriate culture plates (24 well) in specific medium culture, containing supplements required for cell maintenance and proliferation. For that purpose, 1×10^5 cells/well were seeded, confluence being reached after 72 hour incubation, in a wet stove, 5% CO2, 37° C.
Subsequent to confluence (approximately 80% of the total area), the samples to be assessed were added, at the appropriate concentrations and previously established, according to table 2, always keeping a group as CONTROL (with no treatment), for comparative purposes in assessing effectiveness. The samples were previously diluted in proper culture medium.
as §1
Quantification of the production of beta-endorphin by the cells in culture was carried out by the immunoenzymatic method ELISA (Enzyme-Linked immunosorbent Assay), using a kit appropriate for determining de beta-endorphin in biological samples. The samples were assessed in quadruplicate.

As to `Cn1c(=O)c2c(ncn2C)n(C)c1=O` [caffeine], the “prevention of UVA light-induced wrinkles” value in assay [1] was “effective”. Moreover, the “production of β-endorphin compared with TC150905MX at the same concentration” value with human fibroblasts and in the assay on human keratinocytes was “higher production of β-endorphin” in each case. Also, the “power in the ability of increasing AMPc (fosfodiesterase inhibition)” value in the assay with bovine fosfodiesterase is reported as “identical”. For the same compound, in the assay with adipocytes, the “power on noradrenaline-induced lypolisis” value is listed as “equivalent power”.

Consider `Cn1cnc2c1c(=O)[nH]c(=O)n2C` [theobromine], for which, in the assay on bovine fosfodiesterase, the “power in the ability of increasing AMPc (fosfodiesterase inhibition)” value is recorded as “identical”.
